In series [1] the target is T1, PDE10A (human) (Homo sapiens, UniProt Q9Y233).
T1 construct: purchased BPS Bioscience
The series is described as follows: Measurement of PDE activity (HTRF cAMP kit), human PDE10A. In kind it is biochemical. The note with it: PDE enzymatic reaction, substrate 20 nM for PDE10, 60 minutes at 29 C. The method, boiled down:
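Recombinant human PDE10A (10–250 pM range across PDEs) with 20 nM cAMP substrate in 20 mM Tris-HCl pH 7.5, 10 mM MgCl2, 0.1% BSA, compound pre-mixed with enzyme. Ran 60 min at 29 °C. Remaining cAMP read by HTRF, converted to % of uninhibited activity, and IC50 fitted.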
(Time-resolved FRET reads energy transfer from a long-lived donor to a nearby acceptor.)

Series [2] is described as follows: Determination of the microsomal half-life, rat liver microsomes. The note with it: rat, liver microsomes, pH 7.4. A general note: Microsomes from liver hold many membrane-bound enzymes, among them those of drug oxidation.
The nature of series [3]: Determination of the microsomal half-life, human liver microsomes. The note with it: human, liver microsomes, pH 7.4.

Molecules are shown by their SMILES. Where a name gives a salt, the structure may show the parent alone. Bounds are passed on as bounds.

T1 sequence (Q9Y233 whole entry): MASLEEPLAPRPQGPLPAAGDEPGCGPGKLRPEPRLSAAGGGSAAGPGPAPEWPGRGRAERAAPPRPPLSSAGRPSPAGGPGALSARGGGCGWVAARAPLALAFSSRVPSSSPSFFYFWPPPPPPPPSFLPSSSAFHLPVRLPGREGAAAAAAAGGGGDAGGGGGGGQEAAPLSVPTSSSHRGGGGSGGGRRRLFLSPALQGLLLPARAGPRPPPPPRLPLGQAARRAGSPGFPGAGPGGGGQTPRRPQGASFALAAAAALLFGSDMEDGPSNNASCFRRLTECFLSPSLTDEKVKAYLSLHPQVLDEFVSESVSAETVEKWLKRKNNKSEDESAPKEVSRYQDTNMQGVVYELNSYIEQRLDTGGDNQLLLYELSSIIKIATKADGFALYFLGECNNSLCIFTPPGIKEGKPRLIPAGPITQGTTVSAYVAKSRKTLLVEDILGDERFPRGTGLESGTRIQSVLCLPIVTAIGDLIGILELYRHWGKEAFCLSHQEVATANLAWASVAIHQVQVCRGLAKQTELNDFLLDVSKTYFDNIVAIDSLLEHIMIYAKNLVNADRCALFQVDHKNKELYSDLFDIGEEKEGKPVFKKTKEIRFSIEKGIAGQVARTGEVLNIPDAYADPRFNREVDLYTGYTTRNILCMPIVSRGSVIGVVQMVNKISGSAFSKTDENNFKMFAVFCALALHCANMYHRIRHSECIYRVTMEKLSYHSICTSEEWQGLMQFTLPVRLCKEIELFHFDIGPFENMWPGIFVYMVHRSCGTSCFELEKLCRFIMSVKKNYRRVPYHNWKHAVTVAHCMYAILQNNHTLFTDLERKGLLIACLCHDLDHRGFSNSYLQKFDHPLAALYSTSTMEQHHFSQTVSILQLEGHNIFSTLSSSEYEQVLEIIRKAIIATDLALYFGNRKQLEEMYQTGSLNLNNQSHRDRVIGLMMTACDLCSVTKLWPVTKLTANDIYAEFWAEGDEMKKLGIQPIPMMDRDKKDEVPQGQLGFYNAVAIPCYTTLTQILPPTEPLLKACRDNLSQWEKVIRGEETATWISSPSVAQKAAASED

`O=C1c2c(-c3cccnc3)ccnc2CN1CCc1nc2ccccc2s1` [compound 430, 6-[2-(1,3-Benzothiazol-2-yl)ethyl]-4-(3-pyridyl)-7H-pyrrolo[3,4-b]pyridin-5-one trifluoroacetate] displayed a half-maximal inhibitory concentration (IC50) in series [1] of less than 100 nM. Besides, the microsomal CLint at 0.5 μM in series [2] and in series [3] was less than 100 µL/min/mg in each case.
As to `O=C1c2c(C3=CCOCC3)ccnc2CN1CCc1ccc2ccccc2n1` [Example 265, 4-(3,6-Dihydro-2H-pyran-4-yl)-6-(2-quinolin-2-yl-ethyl)-6,7-dihydro-pyrrolo[3,4-b]pyridin-5-one], the IC50 in series [1] is less than 100 nM. The microsomal CLint at 0.5 μM in series [2] and in series [3] was 100 to 220 µL/min/mg throughout.
`O=C1c2c(N3CCOCC3)ccnc2CN1CCc1nc(C2CC2)cs1` [compound 518, 6-[2-(4-Cyclopropylthiazol-2-yl)ethyl]-4-morpholino-7H-pyrrolo[3,4-b]pyridin-5-one] showed a half-maximal inhibitory concentration (IC50) in series [1] of less than 100 nM. Further, the intrinsic clearance (microsomal CLint) at 0.5 μM in series [2] was 100 to 220 µL/min/mg; in series [3], less than 100 µL/min/mg.
On to `COc1ccc(N2CCOCC2)c2c1CN(CCc1ccc3ccccc3n1)C2=O` [Example 248, 4-Methoxy-7-morpholin-4-yl-2-(2-quinolin-2-yl-ethyl)-2,3-dihydro-isoindol-1-one], for which the IC50 in series [1] is less than 100 nM. The microsomal CLint at 0.5 μM in series [2] and in series [3] was less than 100 µL/min/mg each time.
In series [1], `O=C1c2c(cccc2-c2ccc3nn[nH]c3c2)CN1CCc1ccc2ccccc2n1` [Example 10, 7-(3H-Benzotriazol-5-yl)-2-(2-quinolin-2-yl-ethyl)-2,3-dihydro-isoindol-1-one trifluoroacetate] showed an IC50 of less than 100 nM. In addition, the intrinsic metabolic clearance (microsomal CLint) at 0.5 μM is less than 100 µL/min/mg in series [2] and 100 to 220 µL/min/mg in series [3].
In turn, `O=C1c2c(cccc2N2CCOCC2)CN1CCc1nc2ccccc2s1` [Example 263, 2-(2-Benzothiazol-2-yl-ethyl)-7-morpholin-4-yl-2,3-dihydro-isoindol-1-one trifluoroacetate] registered an IC50 in series [1] of less than 100 nM. Also, the microsomal CLint at 0.5 μM was less than 100 µL/min/mg in series [2] and 100 to 220 µL/min/mg in series [3].
In the same order, the values of `O=C1c2c(-c3ccoc3)ccnc2CN1CCc1cn2cc(F)ccc2n1` [compound 526, 6-[2-(6-Fluoroimidazo[1,2-a]pyridin-2-yl)ethyl]-4-(3-furyl)-7H-pyrrolo[3,4-b]pyridin-5-one] are less than 100 nM, 100 to 220 µL/min/mg and less than 100 µL/min/mg.
Taken in the same sequence, the figures for `O=C1Cc2ccc(-c3cccc4c3C(=O)N(CCc3cn5ccccc5n3)C4)cc2N1` [Example 241, 6-[2-(2-Imidazo[1,2-a]pyridin-2-yl-ethyl)-3-oxo-2,3-dihydro-1H-isoindol-4-yl]-1,3-dihydro-indol-2-one] were less than 100 nM, less than 100 µL/min/mg and less than 100 µL/min/mg.
Compound `Cn1c(CCN2Cc3nccc(-c4ccncc4)c3C2=O)nc2ccccc21` [Example 367, 6-[2-(1-Methyl-1H-benzoimidazol-2-yl)-ethyl]-4-pyridin-4-yl-6,7-dihydro-pyrrolo[3,4-b]pyridin-5-one] displayed a half-maximal inhibitory concentration (IC50) in series [1] of less than 100 nM. The microsomal CLint at 0.5 μM in series [2] and in series [3] was less than 100 µL/min/mg each time.
In series [1], `O=C1c2c(cccc2N2CCOCC2)CN1CCc1nc2ccccc2n1C(F)F` [compound 449, 2-[2-(1-Difluoromethyl-1H-benzoimidazol-2-yl)-ethyl]-7-morpholin-4-yl-2,3-dihydro-isoindol-1-one trifluoroacetate] displayed a concentration for half-maximal inhibition (IC50) of 200 to 500 nM. Moreover, the microsomal CLint at 0.5 μM in series [2] and in series [3] was 100 to 220 µL/min/mg throughout.
As for `Cn1c(CCN2Cc3nccc(N4CCOCC4)c3C2=O)nc2ccccc21` [Example 216, 6-[2-(1-Methyl-1H-benzoimidazol-2-yl)-ethyl]-4-morpholin-4-yl-6,7-dihydro-pyrrolo[3,4-b]pyridin-5-one], in series [1], the IC50 was less than 100 nM. The intrinsic clearance (microsomal CLint) at 0.5 μM in series [2] and in series [3] was less than 100 µL/min/mg in each case.
Compound `O=C1c2c(cccc2-c2ccncc2)CN1CCc1ccc2sccc2n1` [Example 19, 7-Pyridin-4-yl-2-(2-thieno[3,2-b]pyridin-5-yl-ethyl)-2,3-dihydro-isoindol-1-one] yielded a half-maximal inhibitory concentration (IC50) in series [1] of less than 100 nM. Moreover, the results for the intrinsic clearance (microsomal CLint) at 0.5 μM in series [2] and in series [3] were 100 to 220 µL/min/mg and more than 220 µL/min/mg, respectively.
In the same order, the values of `O=C1c2c(-c3ccnnc3)ccnc2CN1CCc1ccc2ccccc2n1` [Example 338, 4-Pyridazin-4-yl-6-(2-quinolin-2-yl-ethyl)-6,7-dihydro-pyrrolo[3,4-b]pyridin-5-one] are less than 100 nM, less than 100 µL/min/mg and less than 100 µL/min/mg.
In the same order, the values of `O=C1c2c(N3CCC(CF)C3)ccnc2CN1CCc1nc2ccccc2s1` (stereo not drawn) [compound 387, 6-[2-(1,3-Benzothiazol-2-yl)ethyl]-4-[3-(fluoromethyl)pyrrolidin-1-yl]-7H-pyrrolo[3,4-b]pyridin-5-one] are less than 100 nM, more than 220 µL/min/mg and 100 to 220 µL/min/mg.
For the compound `[2H]c1nc2c(c(N3CCOCC3)c1[2H])C(=O)N(CC([2H])([2H])c1nc3c([2H])c([2H])c([2H])c([2H])c3c([2H])c1[2H])C2([2H])[2H]` [compound 513, 2,3,7,7-Tetradeuterio-6-[2,2-dideuterio-2-(3,4,5,6,7,8-hexadeuterio-2-quinolyl)ethyl]-4-morpholino-pyrrolo[3,4-b]pyridin-5-one], in series [1], the IC50 is less than 100 nM. Also, the intrinsic clearance (microsomal CLint) at 0.5 μM in series [2] is more than 220 µL/min/mg; in series [3], 100 to 220 µL/min/mg.
In series [1], `Cc1cnc(CCN2Cc3nccc(N4CCOCC4)c3C2=O)c(C)c1` [compound 489, 6-[2-(3,5-Dimethyl-2-pyridyl)ethyl]-4-morpholino-7H-pyrrolo[3,4-b]pyridin-5-one] yielded an IC50 of less than 100 nM. The intrinsic metabolic clearance (microsomal CLint) at 0.5 μM in series [2] and in series [3] was 100 to 220 µL/min/mg each time.
Turning to `Cn1c(CCN2Cc3cccc(N4CCOCC4)c3C2=O)nc2ccccc21` [Example 153, 2-[2-(1-Methyl-1H-benzoimidazol-2-yl)-ethyl]-7-morpholin-4-yl-2,3-dihydro-isoindol-1-one], the half-inhibitory concentration (IC50) in series [1] is less than 100 nM. For the same compound, the microsomal CLint at 0.5 μM in series [2] and in series [3] was less than 100 µL/min/mg each time.
In series [1], `O=C1c2c(-c3ccncc3)ccnc2CN1CCc1ccc2ccccc2n1` [Example 3, 4-Pyridin-4-yl-6-(2-quinolin-2-yl-ethyl)-6,7-dihydro-pyrrolo[3,4-b]pyridin-5-one] gave a concentration for half-maximal inhibition (IC50) of less than 100 nM. The microsomal CLint at 0.5 μM was 100 to 220 µL/min/mg in series [2] and less than 100 µL/min/mg in series [3].
In the case of `Cc1ncccc1-c1cccc2c1C(=O)N(CCc1ccc3ccccc3n1)C2` [Example 86, 7-(2-Methyl-pyridin-3-yl)-2-(2-quinolin-2-yl-ethyl)-2,3-dihydro-isoindol-1-one], the concentration for half-maximal inhibition (IC50) in series [1] was less than 100 nM. Also, the microsomal CLint at 0.5 μM in series [2] is more than 220 µL/min/mg; in series [3], 100 to 220 µL/min/mg.
For `Cc1cccnc1CCN1Cc2nccc(-c3ccncc3)c2C1=O` [compound 409, 6-[2-(3-Methyl-2-pyridyl)ethyl]-4-(4-pyridyl)-7H-pyrrolo[3,4-b]pyridin-5-one], the half-maximal inhibitory concentration (IC50) in series [1] fell in the range of 200 to 500 nM. The microsomal CLint at 0.5 μM in series [2] and in series [3] was less than 100 µL/min/mg each time.
`O=C1c2c(-c3cncnc3)ccnc2CN1CCc1nc2ccccn2n1` [Example 215, 4-Pyrimidin-5-yl-6-(2-[1,2,4]triazolo[1,5-a]pyridin-2-yl-ethyl)-6,7-dihydro-pyrrolo[3,4-b]pyridin-5-one] gave an IC50 in series [1] of 200 to 500 nM. The microsomal CLint at 0.5 μM in series [2] and in series [3] was less than 100 µL/min/mg throughout.
In series [1], `O=C1c2c(NC3COC3)ccnc2CN1CCc1ccc2ccccc2n1` [Example 275, 4-(Oxetan-3-ylamino)-6-(2-quinolin-2-yl-ethyl)-6,7-dihydro-pyrrolo[3,4-b]pyridin-5_] returned an IC50 of less than 100 nM. Further, the microsomal CLint at 0.5 μM in series [2] and in series [3] was less than 100 µL/min/mg each time.
As for `O=C1c2c(-c3ccncc3)ccnc2CN1CCc1nc2ccccc2o1` [compound 418, 6-[2-(1,3-Benzoxazol-2-yl)ethyl]-4-(4-pyridyl)-7H-pyrrolo[3,4-b]pyridin-5-one], the concentration for half-maximal inhibition (IC50) in series [1] lay in the range of 200 to 500 nM. The microsomal CLint at 0.5 μM in series [2] and in series [3] was less than 100 µL/min/mg in each case.
With `COc1ccc(-c2ccncc2)c2c1CN(CCc1nc3ccccc3n1C)C2=O` [Example 370, 4-Methoxy-2-[2-(1-methyl-1H-benzoimidazol-2-yl)-ethyl]-7-pyridin-4-yl-2,3-dihydro-isoindol-1-one], the IC50 in series [1] was less than 100 nM. Moreover, the intrinsic clearance (microsomal CLint) at 0.5 μM in series [2] was less than 100 µL/min/mg; in series [3] it was more than 220 µL/min/mg.
Taken in the same sequence, the figures for `O=C1c2c(-c3ccoc3)ccnc2CN1CCc1cn2ccccc2n1` [compound 414, 4-Furan-3-yl-6-(2-imidazo[1,2-a]pyridin-2-yl-ethyl)-6,7-dihydro-pyrrolo[3,4-b]pyridin-5-one] were less than 100 nM, less than 100 µL/min/mg and less than 100 µL/min/mg.
In the same order, the values of `Cn1c(CCN2Cc3cccc(-c4ccncc4)c3C2=O)nc2c(F)cccc21` [Example 300, 2-[2-(4-Fluoro-1-methyl-1H-benzoimidazol-2-yl)-ethyl]-7-pyridin-4-yl-2,3-dihydro-isoindol-1-one trifluoroacetate] are less than 100 nM, 100 to 220 µL/min/mg and more than 220 µL/min/mg.

As usually defined, the IC50 is the concentration that gives 50% inhibition. Lower therefore signals greater potency. For orientation: microsomal CLint means the capacity of the preparation to metabolise the compound, expressed as a volume cleared per time.

The record behind these values is patent publication US9938269B2, “Inhibitor compounds of phosphodiesterase type 10A” (ABBVIE INC., priority 2011, dated 2018).
